Experimental findings from patent publication US10227323B2, “Glucosylceramide synthase inhibitors for the treatment of diseases” (BIOMARIN PHARMACEUTICAL INC., priority 2013, dated 2019) are described below.

Structures are written as SMILES. Some results are limits rather than exact numbers.

In the test the target is T1, GCS (Canis lupus familiaris, UniProt A0A8I3MXG6).
T1 sequence (A0A8I3MXG6 1-394): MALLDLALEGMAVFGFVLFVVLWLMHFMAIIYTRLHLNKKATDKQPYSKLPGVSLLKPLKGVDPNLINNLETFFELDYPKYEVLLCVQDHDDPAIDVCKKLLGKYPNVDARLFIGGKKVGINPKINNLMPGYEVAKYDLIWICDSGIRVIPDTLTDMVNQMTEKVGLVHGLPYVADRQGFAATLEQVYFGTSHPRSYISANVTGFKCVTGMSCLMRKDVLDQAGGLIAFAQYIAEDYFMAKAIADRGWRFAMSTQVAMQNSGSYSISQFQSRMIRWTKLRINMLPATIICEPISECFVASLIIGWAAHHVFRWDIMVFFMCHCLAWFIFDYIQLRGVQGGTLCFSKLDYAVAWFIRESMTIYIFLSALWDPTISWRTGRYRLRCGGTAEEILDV
The test is described as follows: Assay 1: GCS Enzymatic Assay (MDCK cell lysate, C6-NBD-Ceramide, LC/MS). In kind it is biochemical, canine. Conditions: Table 2; for IC50: data without asterisk, read-out: IC50 (nM) generated from Assay 1; for % inhibition generated from Assay 1: data marked by *. Summed up: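 LC/MS/MS measurement of glucosylceramide and NBD-ceramide after a 1 h, 37 °C reaction with 100 μM UDP-glucose and 10 μM C6-NBD-ceramide gave IC50s or percent inhibition.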

On to `O=C(N[C@H](CN1CCC1)[C@H](O)c1cc(F)c2c(c1)OCCO2)C(=O)c1ccc(N2CCCCC2)cc1` [Compound 227, N-((1R,2R)-3-(azetidin-1-yl)-1-(8-fluoro-2,3-dihydrobenzo[b][1,4]dioxin-6-yl)-1-hydroxypropan-2-yl)-2-oxo-2-(4-(piperidin-1-yl)phenyl)acetamide], for which the IC50 is < 50 nM. On to `O=C(N[C@H](CN1CCCC1)[C@H](O)c1cc(F)c2c(c1)OCCO2)C(=O)c1ccc(-c2ccccn2)cc1` [Compound 228, N-((1R,2R)-1-(8-fluoro-2,3-dihydrobenzo[b][1,4]dioxin-6-yl)-1-hydroxy-3-(pyrrolidin-1-yl)propan-2-yl)-2-oxo-2-(4-(pyridin-2-yl)phenyl)acetamide], for which the half-inhibitory concentration (IC50) is < 50 nM. Turning to `O=C(N[C@H](CN1CCCC1)[C@H](O)c1ccc2c(c1)OCCO2)C(=O)c1csc(-c2ccc(F)cc2)n1` [Compound 229, N-((1R,2R)-1-(2,3-dihydrobenzo[b][1,4]dioxin-6-yl)-1-hydroxy-3-(pyrrolidin-1-yl)propan-2-yl)-2-(2-(4-fluorophenyl)thiazol-4-yl)-2-oxoacetamide], the “% inhibition generated from Assay 1” value is given as “B* (the compound had a % inhibition of greater than or equal to about 3% but less than about 50%)”.

Consider `O=C(N[C@H](CN1CCCC1)[C@H](O)c1cc(F)c2c(c1)OCCO2)C(=O)c1ccc(-c2ccc(F)cc2)s1` [Compound 230, N-((1R,2R)-1-(8-fluoro-2,3-dihydrobenzo[b][1,4]dioxin-6-yl)-1-hydroxy-3-(pyrrolidin-1-yl)propan-2-yl)-2-(5-(4-fluorophenyl)thiophen-2-yl)-2-oxoacetamide], for which the IC50 is < 50 nM. The same measure, in the same setting: then `O=C(N[C@H](CN1CCCC1)[C@H](O)c1ccc(OC2CC2)c(Cl)c1)C(=O)c1ccc(N2CCCCC2)cc1` [Compound 231, N-((1R,2R)-1-(3-chloro-4-cyclopropoxyphenyl)-1-hydroxy-3-(pyrrolidin-1-yl)propan-2-yl)-2-oxo-2-(4-(piperidin-1-yl)phenyl)acetamide], with < 50 nM. With `Cn1ncc2ccc(-c3ccc(C(F)(F)C(=O)N[C@H](CN4CCCC4)[C@H](O)c4ccc(OC5CC5)c(Cl)c4)cc3)cc21` [Compound 232, N-((1R,2R)-1-(3-chloro-4-cyclopropoxyphenyl)-1-hydroxy-3-(pyrrolidin-1-yl)propan-2-yl)-2,2-difluoro-2-(4-(1-methyl-1H-indazol-6-yl)phenyl)acetamide], the concentration for half-maximal inhibition (IC50) was < 50 nM. In the case of `O=C(N[C@H](CN1CCCC1)[C@H](O)c1ccc(OC2CC2)c(Cl)c1)C(=O)c1ccc2sccc2c1` [Compound 233, 2-(benzo[b]thiophen-5-yl)-N-((1R,2R)-1-(3-chloro-4-cyclopropoxyphenyl)-1-hydroxy-3-(pyrrolidin-1-yl)propan-2-yl)-2-oxoacetamide], the IC50 is < 50 nM. Turning to `O=C(N[C@H](CN1CCCC1)[C@H](O)c1cc(Cl)c2c(c1)OCCO2)C(=O)c1ccc(-c2ccc(F)cc2)cc1` [Compound 234, N-((1R,2R)-1-(8-chloro-2,3-dihydrobenzo[b][1,4]dioxin-6-yl)-1-hydroxy-3-(pyrrolidin-1-yl)propan-2-yl)-2-(4′-fluoro-[1,1′-biphenyl]-4-yl)-2-oxoacetamide], the half-inhibitory concentration (IC50) was < 50 nM. For `Cn1ncc2ccc(-c3ccc(C(F)(F)C(=O)N[C@H](CN4CCCC4)[C@H](O)c4ccc5c(c4)OCCO5)cc3)cc21` [Compound 235, N-((1R,2R)-1-(2,3-dihydrobenzo[b][1,4]dioxin-6-yl)-1-hydroxy-3-(pyrrolidin-1-yl)propan-2-yl)-2,2-difluoro-2-(4-(1-methyl-1H-indazol-6-yl)phenyl)acetamide], the IC50 was < 50 nM. On to `Cn1ncc2ccc(-c3ccc(C(F)(F)C(=O)N[C@H](CN4CCCC4)[C@H](O)c4cc(F)c5c(c4)OCCO5)cc3)cc21` [Compound 236, 2,2-difluoro-N-((1R,2R)-1-(8-fluoro-2,3-dihydrobenzo[b][1,4]dioxin-6-yl)-1-hydroxy-3-(pyrrolidin-1-yl)propan-2-yl)-2-(4-(1-methyl-1H-indazol-6-yl)phenyl)acetamide], for which the IC50 is < 50 nM. Same read-out and setting: then `Cn1cc2ccc(-c3ccc(C(F)(F)C(=O)N[C@H](CN4CCCC4)[C@H](O)c4ccc(OC5CC5)c(Cl)c4)cc3)cc2n1` [Compound 237, N-((1R,2R)-1-(3-chloro-4-cyclopropoxyphenyl)-1-hydroxy-3-(pyrrolidin-1-yl)propan-2-yl)-2,2-difluoro-2-(4-(2-methyl-2H-indazol-6-yl)phenyl)acetamide], with < 50 nM. As for `O=C(N[C@H](CN1CCCC1)[C@H](O)c1ccc(OC2CC2)c(Cl)c1)C(=O)c1cccc(N2CCCCC2)c1` [Compound 238, N-((2R)-1-(3-chloro-4-cyclopropoxyphenyl)-1-hydroxy-3-(pyrrolidin-1-yl)propan-2-yl)-2-oxo-2-(3-(piperidin-1-yl)phenyl)acetamide], the “% inhibition generated from Assay 1” value was “B* (the compound had a % inhibition of greater than or equal to about 3% but less than about 50%)”. In the case of `O=C(N[C@H](CN1CCCC1)[C@H](O)c1cc(F)c2c(c1)OCCO2)C(F)(F)c1ccc(-c2ccc(F)cc2)s1` [Compound 239, 2,2-difluoro-N-((1R,2R)-1-(8-fluoro-2,3-dihydrobenzo[b][1,4]dioxin-6-yl)-1-hydroxy-3-(pyrrolidin-1-yl)propan-2-yl)-2-(5-(4-fluorophenyl)thiophen-2-yl)acetamide], the IC50 is < 50 nM. Take `Cn1cc2cc(-c3ccc(C(=O)C(=O)N[C@H](CN4CCCC4)[C@H](O)c4cc(F)c5c(c4)OCCO5)cc3)ccc2n1` [Compound 240, N-((1R,2R)-1-(8-fluoro-2,3-dihydrobenzo[b][1,4]dioxin-6-yl)-1-hydroxy-3-(pyrrolidin-1-yl)propan-2-yl)-2-(4-(2-methyl-2H-indazol-5-yl)phenyl)-2-oxoacetamide]: the IC50 is < 50 nM.

As for `O=C(N[C@H](CN1CCCC1)[C@H](O)c1ccc(OC2CC2)c(Cl)c1)C(=O)c1ccc(Oc2ccc(F)cc2)cc1` [Compound 241, N-((1R,2R)-1-(3-chloro-4-cyclopropoxyphenyl)-1-hydroxy-3-(pyrrolidin-1-yl)propan-2-yl)-2-(4-(4-fluorophenoxy)phenyl)-2-oxoacetamide], the IC50 was < 50 nM.

As for `O=C(N[C@H](CN1CCCC1)[C@H](O)c1ccc(OC2CC2)c(Cl)c1)C(=O)c1cc2ccc(Cl)cc2s1` [Compound 242, N-((1R,2R)-1-(3-chloro-4-cyclopropoxyphenyl)-1-hydroxy-3-(pyrrolidin-1-yl)propan-2-yl)-2-(6-chlorobenzo[b]thiophen-2-yl)-2-oxoacetamide], the IC50 was < 50 nM. Same read-out and setting: then `Cn1ncc2ccc(-c3ccc(C(=O)C(=O)N[C@H](CN4CCCC4)[C@H](O)c4ccc(OC5CC5)c(Cl)c4)cc3)cc21` [Compound 243, N-((1R,2R)-1-(3-chloro-4-cyclopropoxyphenyl)-1-hydroxy-3-(pyrrolidin-1-yl)propan-2-yl)-2-(4-(1-methyl-1H-indazol-6-yl)phenyl)-2-oxoacetamide], with < 50 nM; and `Cn1ncc2ccc(C(=O)C(=O)N[C@H](CN3CCCC3)[C@H](O)c3ccc(OC4CC4)c(Cl)c3)cc21` [Compound 244, N-((1R,2R)-1-(3-chloro-4-cyclopropoxyphenyl)-1-hydroxy-3-(pyrrolidin-1-yl)propan-2-yl)-2-(1-methyl-1H-indazol-6-yl)-2-oxoacetamide], with < 50 nM.

What is called IC50 is the concentration that gives 50% inhibition.
